Counter-ions that a name gives are not always drawn.

`COc1ccc(-c2ccc3cc(OC)ccc3c2Oc2ccc(OCCN3CCCCC3)cc2)cc1` (as salt: hydrochloride) [Example 4, 1-[4-[2-(1-piperdinyl)ethoxy]phenoxy]-2-(4-methoxyphenyl)-6-methoxynaphthalene hydrochloride] displayed a melting point of 184 to 188 °C.
